In one series the target is T1, Fxr (Homo sapiens, UniProt Q96RI1).
T1 construct: expressed in transfected cells; host or cells: SN4741 mouse neuronal cell line
T1 sequence (Q96RI1 1-486): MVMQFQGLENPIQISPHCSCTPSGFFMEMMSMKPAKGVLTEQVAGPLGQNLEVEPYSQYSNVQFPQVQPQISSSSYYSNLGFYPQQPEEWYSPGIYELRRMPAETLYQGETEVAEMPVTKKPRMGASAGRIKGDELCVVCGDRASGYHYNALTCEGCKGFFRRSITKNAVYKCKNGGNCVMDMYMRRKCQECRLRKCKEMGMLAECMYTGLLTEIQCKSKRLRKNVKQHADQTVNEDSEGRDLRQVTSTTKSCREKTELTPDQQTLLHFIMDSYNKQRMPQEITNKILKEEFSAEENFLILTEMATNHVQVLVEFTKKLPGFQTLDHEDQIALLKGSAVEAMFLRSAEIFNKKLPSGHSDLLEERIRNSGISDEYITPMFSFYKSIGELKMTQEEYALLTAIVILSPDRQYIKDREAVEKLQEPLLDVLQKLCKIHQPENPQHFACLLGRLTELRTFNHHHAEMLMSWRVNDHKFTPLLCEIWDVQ
The series is described as follows: Fxr luciferase reporter assay in SN4741 neural cells. The series is classed as cell-based, mouse. As to conditions: 24 h. The method, then:
(§1) Luciferase Reporter Assay. The ability of oxysterols and their acidic metabolites to activate several nuclear receptors i.e. Lxrα and β, Fxr, Vdr, Nurr1 was tested in luciferase assays. Transient transfection studies were performed in the mouse neuronal cell line SN4741. This cell line was selected as the oxysterols and acidic metabolites tested were initially identified in CSF. Cells were plated in 24-well plates ([…] cells/well) 24 hr before transfection and transfected with 1 μg of plasmid DNA/well complexed with 2 μL of Lipofectarnine 2000 (Invitrogen), Cells were transfected with 400 ng of a Lxr-, Fxr-, Vdr- or Nurr1-responsive luciferase reporter construct, and 200 ng of Lxrα, Lxrβ, Fxr, Vdr or Nurr1. A reporter gene expressing the Renilla luciferase (pRL-TK, Promega) was co-transfected in all experiments as an internal control for normalization of transfection efficiency. After a 12 h incubation, the lipid/DNA mix was replaced with fresh 2.5% serum medium containing vehicle or appropriate ligand (10 μM), as specified in each experiment. […] Luciferase activities were assayed 24 h later using the Dual-Luciferase Reporter Assay System (Promega), following the manufacturer's protocol.
For orientation: Reporter assays use an easily measured gene product as a stand-in for the process of interest.

For series [1], the system named is Nur-related factor 1 (Nurr1)/retinoid X receptor (Rxr) heterodimers. The series is described as follows: DR5 element luciferase reporter assay (Nurr1/Rxr) in SN4741 neural cells. The series is classed as cell-based, mouse. As to conditions: 10 μM. From the text: (§2) Luciferase Reporter Assay.
The next series deals with T2, Lxrα (Homo sapiens, UniProt Q13133).
T2 construct: expressed in transfected cells; host or cells: SN4741 mouse neuronal cell line
T2 sequence (Q13133 1-447): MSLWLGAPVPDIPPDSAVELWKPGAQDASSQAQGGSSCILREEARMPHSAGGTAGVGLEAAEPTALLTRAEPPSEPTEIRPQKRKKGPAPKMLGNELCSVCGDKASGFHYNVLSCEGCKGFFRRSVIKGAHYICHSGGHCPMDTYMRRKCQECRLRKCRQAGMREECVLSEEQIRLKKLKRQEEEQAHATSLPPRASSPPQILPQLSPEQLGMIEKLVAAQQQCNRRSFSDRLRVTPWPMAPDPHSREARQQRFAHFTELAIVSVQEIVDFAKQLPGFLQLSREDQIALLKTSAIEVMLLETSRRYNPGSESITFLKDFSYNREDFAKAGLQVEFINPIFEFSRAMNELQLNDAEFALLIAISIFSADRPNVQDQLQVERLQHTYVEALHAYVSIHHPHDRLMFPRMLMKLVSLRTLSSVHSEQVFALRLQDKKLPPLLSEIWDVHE
In words: Lxrα luciferase reporter assay in SN4741 neural cells. The series is classed as cell-based, mouse.
Excerpt: as §2

The next series addresses T3, Lxrβ (Homo sapiens, UniProt P55055).
T3 construct: expressed in transfected cells; host or cells: SN4741 mouse neuronal cell line
T3 sequence (P55055 1-460): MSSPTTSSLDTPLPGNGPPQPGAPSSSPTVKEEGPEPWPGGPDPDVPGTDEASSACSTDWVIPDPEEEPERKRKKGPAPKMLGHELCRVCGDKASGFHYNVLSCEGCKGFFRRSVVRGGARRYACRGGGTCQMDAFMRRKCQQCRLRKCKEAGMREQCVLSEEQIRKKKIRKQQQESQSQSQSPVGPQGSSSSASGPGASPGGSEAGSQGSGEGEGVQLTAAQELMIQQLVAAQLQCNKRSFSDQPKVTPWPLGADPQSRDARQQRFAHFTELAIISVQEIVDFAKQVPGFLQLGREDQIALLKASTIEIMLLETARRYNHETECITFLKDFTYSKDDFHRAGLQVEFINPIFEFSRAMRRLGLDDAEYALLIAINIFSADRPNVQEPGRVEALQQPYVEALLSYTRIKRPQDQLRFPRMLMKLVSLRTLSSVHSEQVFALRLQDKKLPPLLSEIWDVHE
In words: Lxrβ luciferase reporter assay in SN4741 neural cells. The format is cell-based, mouse. Particulars: SN4741 cells, 10 μM, 24 h.
Excerpt: as §2

A further series relates to Islet-1. The series is described as follows: Islet-1 expression in Tg[Isl1:GFP] zebrafish embryos. The series is classed as in vivo. Particulars: 10 μM, embryos 48 hpf. The procedure: Quantitative PCR, Total RNA was extracted from SN4741. cells and zebrafish treated with the compounds of interest using the RNeasy Mini Kit (Qiagen), 1 μg was treated with RQ1 RNase-free DNase (Promega) and reverse transcribed using SuperScript II Reverse Transcriptase (invitrogen) and random primers (invitrogen) (RT+reaction). Parallel reactions without reverse transcriptase enzyme were done as a control (RT−reaction), and Sybergreen real-time quantitative PCR assays were performed. Expression levels were obtained by normalization with the Value of the housekeeping gene encoding actin obtained for every sample in parallel assays.
Zebrafish Strain and Maintenance Zebrafish were raised on a 14/10 h day/night cycle and were kept at 28.5 ° C. Islet-1:GFP transgenic embryos were obtained via natural spawning and staged in hours or days post fertilization (hpf and dpt) according to Kimmel et al). Embryos older than 24 hpf were treated with 0.03% phenylthiourea (PTU) to inhibit pigmentation. MO injections were performed using splice site specific zebrafish lxi MO MO injected embryos were immediately dechorionated and transferred to a 96 well plate and exposed to dimethyl sulfoxide (DMSO) treated or ligand treated medium. Compound Exposure. Islet-1:GFP embryos were collected by natural mating and immediately (at 1 cell stage) dechorionated and transferred to a 96 well plate. Each of the compounds tested were obtained as 10 mM stock and diluted in embryo medium to a final concentration of 10 μM, and 200 μL was added to each well. DMSO or propan-2-ol treated embryo medium was taken as control. Ligand solutions were replaced every 12 h with fresh ligand solution prepared in PTU treated embryo medium. Embryos were collected at 48 hpf, fixed for 4 h at room temperature with 4% paraformaldehyde and then washed and kept in PBST. Immunocytochemistry was performed using an anti-GFP antibody and fluorescence was viewed and photographed using a Zeiss Axioplan compound microscope and a Zeiss Axiocam digital camera.

Series [2] deals with Islet1+ oculomotor neurons. The series is described as follows: Islet1+ cells in mouse E11.5 brain primary cultures. The format is cell-based. The procedure:
(§3) Primary Brain Cultures. Brains from E11.5 mice were manually dissected, plated on poly-D-lysine (150,000 cells/cm^2) and grown in serum-free N2 media consisting of 1:1 mixture of F12 and DMEM with 10 ng/mL insulin, 100 μg/mL apo-transferrin, 100 μM putrescine, 20 nM progesterone, 30 nM selenium, 6 mg/mL glucose, and 1 mg/mL BSA. Cells were treated for 3 days in vitro (DIV) with the compounds of interest, fixed with 4% PFA and processed for staining using appropriate antibodies.
(§4) Antibodies and Detection Procedures. Cells were fixed in 4% PFA, washed in PBS and blocked in 5% normal goat serum/PBS for 1 h at room temperature. Primary antibodies were diluted in PBS (pH 7.4), 0.3% Triton X-100, 1% BSA and incubations were carried out overnight at +4° C. or at room temperature for 2 h. The antibodies used were anti-:BrdU (1:400; Abeam), Islet-1 (1:100: Developmental Studies Hybridoma Bank), cleaved caspase-3 (Aspt 75) (1:100; Cell Signaling Technology), tyrosine hydroxylase (TH; 1:1000; Pel-Freeze) GABA (1:1,000; Sigma), Bm3a (1:250; Millipore), Nkx6.1 (1:200; Novus Biologicals), choline acetyltransferase (ChAT; 1:500; Millipore) and appropriate secondary antibodies (Jackson ImmunoResearch or Alexa). Cells positive for the corresponding marker were counted directly at the microscope at a magnification of 20×. Cells were counted in every well, in eight consecutive fields (going from one side of the well to the other, passing through the center), in three different wells per experiment and in three different experiments per condition. Random pictures of the wells were taken for every condition to document the result, and representative pictures were subsequently selected to represent the quantitative data. Photos were acquired with a Zeiss Axioplan microscope and a Hamamatsu camera C4742-95 using the Openlab software.

Another series has as its system active caspase 3+ cells. In words: Active caspase 3+ cells in mouse E11.5 brain primary cultures. The series is classed as cell-based. As to conditions: wt cultures; 3β,7α-diHCA, 3βH,7O-CA, 25-HC at 10 μM; toxic acids at low concentrations. The procedure: as §3, §4
The nature of series [3]: LC-ESI-MSn of cholestenoic acids in mouse brain. As to conditions: 23 month old male Cyp7b1−/− mice. From the text:
Animals. Lxra,−/−β−/− mouse cell cultures were from the colony at the Department of Biosciences and Nutrition at Novum, Karolinska Institutet. Male and female wild-type and Lxrα−/−β−/− mice were generated as previously described (Alberti et al. J. Clin. Invest 2001:107(5), 565-73). Mice were back crossed onto a C57BL/6 background for 10 generations. Male Cyp7b1−/− mouse brain and plasma were from animals generated at the University of Edinburgh. Male mice homozygous for targeted disruption of the Cyp7b1 gene congenic on the C57BL/6 genetic background (>15 generations backcrossed to C57BL/6) and wild-type littermate controls were generated from Cyp7b1−/+ crosses. Male cyp27a1−/− mouse tissue and plasma was purchased from The Jackson Laboratory (ME, USA) strain B6.129-Cyp27a1^tm1Elt/J. The Cyp27a1−/− colony was backcrossed to C57BL/6J inbred mice for approximately 12 generations by the donating investigator prior to sending to The Jackson Laboratory Repository. Upon arrival, mice were bred to C57BL/6J inbred mice for at least one generation to establish the colony. Wild type animals from the colony were used as controls.
Extraction of Sterols. […]
Charge Tagging of Sterols. The sterols were charge-tagged with the GP-hydrazine to enhance their response when analysed by LC-ESI-MS and tandem mass spectrometry (MS^n).

The target in another series is T4, Vdr (Homo sapiens, UniProt P11473).
T4 sequence (P11473 1-427): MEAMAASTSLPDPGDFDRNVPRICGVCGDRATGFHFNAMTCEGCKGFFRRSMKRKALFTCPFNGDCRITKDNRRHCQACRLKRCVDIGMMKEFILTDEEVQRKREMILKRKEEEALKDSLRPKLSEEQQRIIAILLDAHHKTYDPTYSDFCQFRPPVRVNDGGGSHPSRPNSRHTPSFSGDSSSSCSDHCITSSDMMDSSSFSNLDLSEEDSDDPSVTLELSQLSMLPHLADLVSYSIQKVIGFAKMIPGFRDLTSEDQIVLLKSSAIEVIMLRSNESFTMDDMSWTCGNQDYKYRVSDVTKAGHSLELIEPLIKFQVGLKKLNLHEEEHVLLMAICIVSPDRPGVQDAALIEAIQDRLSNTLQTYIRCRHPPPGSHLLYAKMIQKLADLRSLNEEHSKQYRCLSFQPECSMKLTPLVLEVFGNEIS
In words: Vdr luciferase reporter assay in SN4741 neural cells. The series is classed as cell-based, mouse. As to conditions: 10 μM. The method, then: as §1

For `C[C@H](CCC(=O)O)[C@H]1CC[C@H]2[C@@H]3CC=C4C[C@@H](O)CC[C@]4(C)[C@H]3CC[C@]12C` [3βH-Δ^5-BA, 3β-hydroxychol-5-en-24-oic acid], the “Fxr activation, luciferase reporter” value at Fxr is listed as “also activated Fxr, but was less potent than CDCA”.
`CC1=C(/C=C/C(C)=C\C=C\C(C)=C\C(=O)O)C(C)(C)CCC1` [9-cis-RA, 9-cis-retinoic acid]: the “DR5 (Nurr1/Rxr) luciferase reporter activation” value in series [1] is listed as “activated this reporter”.
Regarding `C[C@H](CCCC(C)(C)O)[C@H]1CC[C@H]2[C@@H]3CC=C4C[C@@H](O)CC[C@]4(C)[C@H]3CC[C@]12C` [25-HC, cholest-5-ene-3β,25-diol], the “Lxr luciferase activity with addition of the Lxr antagonist GGPP” value at Lxrα (10 μM metabolite + 10 μM GGPP) is reported as “similarly blocked”. The “Lxrα activation, luciferase activity (fold activation)” value at Lxrα (10 μM, 24 h) is reported as “activate Lxr”. The “Lxrβ activation, luciferase activity (fold activation)” value on Lxrβ was “activate Lxr”. For the same compound, the Islet-GFP expression result in the series on Islet-1 is reported as “induced a modest increase in the levels of islet-1”. The “Effect on Islet1+ cells in Lxrα−/−β−/− cultures” value in series [2] (cultures from Lxrα−/−β−/− mice) is “blocked in cultures from Lxrα−/−β−/− animals”. The “Number of Islet1+ cells” value in series [2] (wild type cultures) is “increase the number of Islet1+ oculomotor cells”. The “Effect on Islet1+ cells with Lxr antagonist GGPP” value in [2] (wt cultures, 10 μM GGPP) is on record as “inhibited by the Lxr antagonist GGPP”. Moreover, the “Number of active caspase-3+ cells” value with active caspase 3+ cells is given as “reduced the number of active caspase-3+ cells”. In series [3], the “Level in Cyp7b1−/− mouse brain” value is above 2 ng/mg.
Regarding `C[C@H](CCC(=O)O)[C@H]1CC[C@H]2[C@@H]3CC[C@@H]4C[C@H](O)CC[C@]4(C)[C@H]3CC[C@]12C` [LCA, lithocholic acid], on Vdr, the “Vdr activation, luciferase reporter” value is given as “activated a vitamin D receptor (Vdr) luciferase reporter”.
